Converted amounts (≈) assume the structure as drawn. Where two headings read alike, the source gives them in different places.
What was measured:
Format in all cases: cell-based
MRSA ATCC 33591 = assay: Broth microdilution MIC, ATCC strains; conditions: Staphylococcus aureus, read-out: MIC (growth inhibition, microdilution method)
From the text: (§1) All clinical isolates tested were from The North American Urinary Tract Infection Collaborative Alliance (NAUTICA) which is a UTI surveillance study involving 40 medical centres (30 from the US and 10 from Canada). Each centre submitted up to 50 consecutive outpatient midstream urine isolates. All isolates were deemed significant urinary tract pathogens by individual laboratory criteria and identified to the species level by each laboratory's existing protocol. Isolates were transported to the coordinating laboratory (Health Sciences Centre, Winnipeg, Canada) on charcoal swabs. Only one isolate per patient was accepted. Upon receipt, isolates were cultured by the coordinating laboratory, stocked in skim milk, and stored at −80° C. awaiting reference antibiotic susceptibility testing. Elementary demographic information was also compiled for each isolate. Isolates were selected randomly from the above pool to represent 18 different species of Enterobacteriaceae and non-Enterobacteriaceae. An average of 5 strains of each species were tested for a total of 93 organisms. In addition, 23 reference (ATCC) [both gram negative and gram positive] strains were tested.
(§2) Susceptibilities to the compounds were determined using the National Committee for Clinical Laboratory Standards (NCCLS) M7-A6 broth microdilution method. […] DMSO controls were incorporated into the panel to mimic the quantity of DMSO used in dissolving some of the compounds at the higher concentrations. Each final panel well volume was 100 μl with a bacterial inoculum of 5×10^5 colony forming units (CFU)/ml. Panels were read following 16 to 20 hours of incubation at 35° C. in ambient air. The minimum inhibitory concentration (MIC) was defined as the lowest concentration of antimicrobial inhibiting visible growth. Quality control (QC) was performed using four ATCC QC organisms that were run with every batch set up to insure reproducibility.

E. faecium ATCC 35667 = assay: Broth microdilution MIC, ATCC strains; conditions: Enterococcus faecium, ATCC35667, read-out: MIC (growth inhibition, microdilution method)
From the text: as §1, §2

[1] = test system: S. saprophyticus ATCC 15305; assay: Broth microdilution MIC, ATCC strains; conditions: Staphylococcus saprophyticus
From the text: as §1, §2

P. mirabilis ATCC 29245 = assay: Broth microdilution MIC, ATCC strains; conditions: Proteus mirabilis, ATCC29245, read-out: MIC (growth inhibition, microdilution method)
From the text: as §1, §2

[2] = test system: S. liquefaciens ATCC 27592; assay: Broth microdilution MIC, ATCC strains; conditions: read-out: MIC (growth inhibition, microdilution method)
From the text: as §1, §2

[3] = test system: S. maltophilia ATCC 13637; assay: Broth microdilution MIC, ATCC strains; conditions: Stenotrophomonas maltophilia
From the text: as §1, §2

E. cloacae ATCC 23355 = assay: Broth microdilution MIC, ATCC strains; conditions: Enterobacter cloacae, ATCC23355, read-out: MIC (growth inhibition, microdilution method)
From the text: as §1, §2

[4] = test system: S. epidermidis ATCC 14990; assay: Broth microdilution MIC, ATCC strains; conditions: Staphylococcus epidermidis
From the text: as §1, §2

S. warneri ATCC 27836 = assay: Broth microdilution MIC, ATCC strains; conditions: Staphylococcus warneri
From the text: as §1, §2

A. anitratus ATCC 19606 = assay: Broth microdilution MIC, ATCC strains; conditions: Acinetobacter calcoaceticus
From the text: as §1, §2

[5] = test system: Ps. aeruginosa ATCC 27853; assay: Broth microdilution MIC, ATCC strains; conditions: Pseudomonas aeruginosa
From the text: as §1, §2

P. rettgeri CAP = assay: Broth microdilution MIC, reference strains; conditions: Providencia rettgeri, read-out: MIC (growth inhibition, microdilution method)
From the text: as §1, §2

[6] = test system: M. morganii clinical isolates; assay: Broth microdilution MIC, clinical isolate strains (NAUTICA); conditions: clinical isolates, one table line per isolate; unit assumed
From the text: as §1, §2

[7] = test system: S. liquifaciens clinical isolates; assay: as above; conditions: clinical isolates, one table line per isolate; unit assumed
From the text: as §1, §2

[8] = test system: C. amalonaticus clinical isolates; assay: as above; conditions: clinical isolates, one table line per isolate; unit assumed
From the text: as §1, §2

[9] = test system: C. freundii clinical isolates; assay: as above; conditions: clinical isolates, one table line per isolate; in µg/mL (unit assumed)
From the text: as §1, §2

[10] = test system: K. pneumoniae clinical isolates; assay: as above; conditions: clinical isolates, one table line per isolate; unit assumed
From the text: as §1, §2

[11] = test system: E. cloacae clinical isolates; assay: as above; conditions: clinical isolates, one table line per isolate; unit assumed
From the text: as §1, §2

[12] = test system: E. aerogenes clinical isolates; assay: as above; conditions: clinical isolates, one table line per isolate; unit assumed
From the text: as §1, §2

[13] = test system: P. vulgaris clinical isolates; assay: as above; conditions: clinical isolates, one table line per isolate; unit assumed
From the text: as §1, §2

[14] = test system: P. mirabilis clinical isolates; assay: as above; conditions: clinical isolates, one table line per isolate; unit assumed
From the text: as §1, §2

[15] = test system: C. koseril clinical isolates; assay: as above; conditions: clinical isolates, one table line per isolate; unit assumed
From the text: as §1, §2

[16] = test system: S. marcescens clinical isolates; assay: as above; conditions: clinical isolates, one table line per isolate; unit assumed
From the text: as §1, §2

[17] = test system: K. oxytoca clinical isolates; assay: as above; conditions: clinical isolates, one table line per isolate; unit assumed
From the text: as §1, §2

[18] = test system: P. stuartii clinical isolates; assay: as above; conditions: clinical isolates, one table line per isolate; unit assumed
From the text: as §1, §2

[19] = test system: B. cepacia clinical isolates; assay: as above; conditions: clinical isolates, one table line per isolate; unit assumed
From the text: as §1, §2

[20] = test system: S. maltophilia clinical isolates; assay: as above; conditions: clinical isolates, one table line per isolate; unit assumed
From the text: as §1, §2

[21] = test system: E. coli clinical isolates; assay: as above; conditions: clinical isolates, one table line per isolate; unit assumed
From the text: as §1, §2

[22] = test system: A. baumanii clinical isolates; assay: as above; conditions: clinical isolates, one table line per isolate; unit assumed
From the text: as §1, §2

[23] = test system: P. retgerri clinical isolates; assay: as above; conditions: clinical isolates, one table line per isolate; unit assumed
From the text: as §1, §2

[24] = ATCC15305, read-out: MIC (growth inhibition, microdilution method)
[25] = ATCC13637, S. maltophilia ATCC 13637, read-out: MIC (growth inhibition, microdilution method)
[26] = ATCC27836, S. warneri ATCC 27836, read-out: MIC (growth inhibition, microdilution method)
[27] = ATCC19606, A. anitratus ATCC 19606, read-out: MIC (growth inhibition, microdilution method)
[28] = ATCC27853, read-out: MIC (growth inhibition, microdilution method), Ps. aeruginosa ATCC 27853
[29] = ATCC27853, Ps. aeruginosa ATCC 27853, read-out: MIC (growth inhibition, microdilution method)
[30] = ATCC14990, S. epidermidis ATCC 14990, read-out: MIC (growth inhibition, microdilution method)

| SMILES | MIC (E. faecium ATCC 35667) [µg/mL] | MIC [1, 24] [µg/mL] | MIC (P. mirabilis ATCC 29245) [µg/mL] | MIC [2] [µg/mL] | MIC [3, 25] [µg/mL] | MIC (E. cloacae ATCC 23355) [µg/mL] | MIC [5, 28] [µg/mL] | MIC (P. rettgeri CAP) [µg/mL] | MIC, M. MORGANII [6] [µg/mL] | MIC, S. LIQUEFACIENS [7] [µg/mL] | MIC, C. AMALONATICUS [8] [µg/mL] | MIC, C. FREUNDII [9] | MIC, K. PNEUMONIAE [10] [µg/mL] | MIC, E. CLOACAE [11] [µg/mL] | MIC, E. AEROGENES [12] [µg/mL] | MIC, P. VULGARIS [13] [µg/mL] | MIC, P. MIRABILIS [14] [µg/mL] | MIC, C. KOSERI [15] [µg/mL] | MIC, S. MARCESCENS [16] [µg/mL] | MIC, K. OXYTOCA [17] [µg/mL] | other results |
| --- | --- | --- | --- | --- | --- | --- | --- | --- | --- | --- | --- | --- | --- | --- | --- | --- | --- | --- | --- | --- | --- |
| O=C(O)c1cc(-c2nnn[nH]2)c(C(=O)O)s1 [DNM-111, 3-(1H-tetrazol-5-yl)thiophene-2,5-dicarboxylic acid] | 8 (≈ 33.3 µM) | 128 (≈ 533 µM) | 128 (≈ 533 µM) | 128 (≈ 533 µM) | 64 (≈ 266 µM) | 128 (≈ 533 µM) | 128 (≈ 533 µM) | 128 (≈ 533 µM) | 128 (≈ 533 µM) | 128 (≈ 533 µM) | 128 (≈ 533 µM) | 128 | 128 (≈ 533 µM) | 128 (≈ 533 µM) | 128 (≈ 533 µM) | 128 (≈ 533 µM) | 128 (≈ 533 µM) | 128 (≈ 533 µM) | 128 (≈ 533 µM) | 128 (≈ 533 µM) | MIC (MRSA ATCC 33591): 128 µg/mL (≈ 533 µM); MIC ([4]; ATCC14990, read-out: MIC (growth inhibition, microdilution method)): 128 µg/mL (≈ 533 µM); MIC (S. warneri ATCC 27836; [26]): 256 µg/mL (≈ 1070 µM); MIC (A. anitratus ATCC 19606; [27]): 64 µg/mL (≈ 266 µM); MIC [5, 29]: 64 µg/mL (≈ 266 µM) |
| Cn1nnc(-c2cc(C(=O)O)sc2C(=O)O)n1 [DNM-112, 3-(2-Methyl-2H-tetrazol-5-yl)-thiophene-2,5-dicarboxylic acid] | 8 (≈ 31.5 µM) |  | > 256 | > 256 |  | > 256 | > 256 | > 256 | > 256 | > 256 | > 256 | >256 | > 256 | > 256 | > 256 | > 256 | > 256 | > 256 | > 256 | > 256 | MIC (MRSA ATCC 33591; MRSA ATCC 33591): 16 µg/mL (≈ 62.9 µM); MIC ([1]; ATCC15305, S. saprophyticus ATCC 15305, read-out: MIC (growth inhibition, microdilution method)): 64 µg/mL (≈ 252 µM); MIC ([3]; ATCC13637, read-out: MIC (growth inhibition, microdilution method)): > 256 µg/mL; MIC [4, 30]: 16 µg/mL (≈ 62.9 µM); MIC (S. warneri ATCC 27836; [26]): 64 µg/mL (≈ 252 µM); MIC (A. anitratus ATCC 19606; ATCC19606, read-out: MIC (growth inhibition, microdilution method)): > 256 µg/mL; MIC, P. STUARTII [18]: > 256 µg/mL; MIC, B. CEPACIA [19]: > 256 µg/mL; MIC, S. MALTOPHILIA [20]: > 256 µg/mL; MIC, E. COLI [21]: > 256 µg/mL; MIC, A. BAUMANII [22]: > 256 µg/mL; MIC, P. RETTGERI [23]: > 256 µg/mL |
| COC(=O)c1cc(-c2nnn(C)n2)c(C(=O)OC)s1 [DNM-114, 3-(2-methyl-2H-tetrazol-5-yl)-thiophene-2,5-dicarboxylic acid dimethyl ester] | 8 (≈ 28.3 µM) | 128 (≈ 453 µM) | 128 (≈ 453 µM) | 128 (≈ 453 µM) | 64 (≈ 227 µM) | 128 (≈ 453 µM) | 128 (≈ 453 µM) | 128 (≈ 453 µM) | 128 (≈ 453 µM) | 128 (≈ 453 µM) | 128 (≈ 453 µM) | 128 | 128 (≈ 453 µM) | 128 (≈ 453 µM) | 128 (≈ 453 µM) | 128 (≈ 453 µM) | 128 (≈ 453 µM) | 128 (≈ 453 µM) | 128 (≈ 453 µM) | 128 (≈ 453 µM) | MIC (MRSA ATCC 33591; MRSA ATCC 33591): 256 µg/mL (≈ 907 µM); MIC [4, 30]: 64 µg/mL (≈ 227 µM); MIC (S. warneri ATCC 27836; ATCC27836, read-out: MIC (growth inhibition, microdilution method)): 128 µg/mL (≈ 453 µM); MIC (A. anitratus ATCC 19606; [27]): 64 µg/mL (≈ 227 µM); MIC [5, 29]: 64 µg/mL (≈ 227 µM); MIC, B. CEPACIA [19]: 64 µg/mL (≈ 227 µM); MIC, E. COLI [21]: 128 µg/mL (≈ 453 µM); MIC, P. RETTGERI [23]: 128 µg/mL (≈ 453 µM) |

Reference: US8835476B2, “Synthesis of novel antimicrobials” (priority 2005, dated 2014)
